Tested on: Murine preadipocytes (3T3-L1)
Experiment: Fat accumulation in 3T3-L1 preadipocytes during induced differentiation (Triglyceride E-test)
Type: cell-based
Details: 3T3-L1, differentiation-inducing medium with test compound, seven days; stated in words, numbers only in FIG. 7
Procedure: Murine preadipocytes (3T3-L1) have such a property as to accumulate fat following differentiation. In the present test, while differentiation of 313-L1 preadipocytes was induced by insulin and the like, test compounds were simultaneously added. Then, an amount of fat in the cells was measured to evaluate that the test compounds exert inhibition of differentiation of the preadipocytes or an inhibitory effect on fat accumulation following differentiation. In this test, in a case where cells die due to the test compounds, there is concern that the test might unintentionally result in a low fat accumulation rate, which is seemingly a favorable result. […] Also, fat accumulation was observed under a microscope from time to time during the test.
Preadipocytes (3T3-L1) were cultured to confluence in the presence of 5% CO2 at 37° C. for two days in 150 μL of culture media (DMEM containing 10% fetal bovine serum (glucose concentration of […])) in two 96-well microplates. Then, with respect to both plates, the culture media were aspirated and replaced with 150 μL of differentiation-inducing media containing a certain concentration of test compounds (DMEM containing 10% fetal bovine serum (glucose concentration of […]) in which 1 μM dexamethasone, 10 μg/mL insulin, and 0.5 mM 3-isobutyl-1-methylxanthine were dissolved). Normally, methanol solution containing a 200-fold concentration of test compounds (1a, 1b, 1c, 1d, and 1e) was prepared, and 7.5 μL of the solution was added with respect to 1.5 mL of the differentiation-inducing media. At this time, a well that was not replaced with the differentiation-inducing medium and a well to which only methanol was added instead of a sample solution were prepared as a control. The plates were cultured in the presence of 5% CO2 at 37° C. for seven days. Thereafter, one plate was served for measurement of an amount of fat, and the other plate was served for measurement of a survival rate.
To each well of the plate for measurement of an amount of fat, 10 μL of 2% Triton X-100 was added, and the plate was left to stand for 30 minutes. Subsequently, the plate was sealed with a sealing tape (a product of Asahi Techno Glass Corporation) and sonicated for one minute in an ultrasonic cleaner. Subsequently, 20 μL of solution was collected from each well and added to a 96-well microplate in which 150 μL of Triglyceride E-test Wako (a product of Wako Pure Chemical Industries, Ltd.), a coloring reagent, had been added to each well, and then the plate was incubated at 37° C. for 30 minutes, after which absorbance (at 630 nm, control at 690 nm) was measured by a plate reader. A ratio of absorbance in a compound-added group to absorbance in a compound-free group was obtained as a percentage, which was provided as a fat accumulation rate. Fat accumulation rates with respect to a concentration in each sample were represented as a semilogarithmic graph. From this graph a compound concentration at which a fat accumulation rate was 50% was read off, which was provided as a 50% effective concentration (EC50). It can be interpreted that the smaller the EC50 value is, the stronger the inhibitory effect on differentiation of adipocytes or on fat accumulation in adipocytes is.

| SMILES | EC50 (compound concentration at which the fat accumulation rate is 50%); inhibitory effect on differentiation of adipocytes or on fat accumulation |
| --- | --- |
| CC[C@H](C)[C@H]1NC(=O)[C@@H](CC(C)C)NC(=O)[C@@H](C)N(C)C(=O)[C@H](C)N(C)C(=O)[C@H](CC(C)C)NC(=O)[C@H](CC(C)C)N(C)C(=O)[C@H](C)N(C)C1=O [1b] | excellently exerts an inhibitory effect on differentiation of adipocytes or on fat accumulation in adipocytes |
| CC[C@H](C)[C@H]1NC(=O)[C@@H](C)NC(=O)[C@@H](C)N(C)C(=O)[C@H](C)N(C)C(=O)[C@H](CC(C)C)NC(=O)[C@H](CC(C)C)N(C)C(=O)[C@H](C)N(C)C1=O [1a] | excellently exerts an inhibitory effect on differentiation of adipocytes or on fat accumulation in adipocytes |
| CC[C@H](C)[C@H]1NC(=O)[C@@H](CO)NC(=O)[C@@H](C)N(C)C(=O)[C@H](C)N(C)C(=O)[C@H](CC(C)C)NC(=O)[C@H](CC(C)C)N(C)C(=O)[C@H](C)N(C)C1=O [1e] | excellently exerts an inhibitory effect on differentiation of adipocytes or on fat accumulation in adipocytes |
| CC[C@H](C)[C@H]1NC(=O)[C@@H]([C@H](C)O)NC(=O)[C@@H](C)N(C)C(=O)[C@H](C)N(C)C(=O)[C@H](CC(C)C)NC(=O)[C@H](CC(C)C)N(C)C(=O)[C@H](C)N(C)C1=O [1d] | excellently exerts an inhibitory effect on differentiation of adipocytes or on fat accumulation in adipocytes |
| CC[C@H](C)[C@H]1NC(=O)[C@@H](COCc2ccccc2)NC(=O)[C@@H](C)N(C)C(=O)[C@H](C)N(C)C(=O)[C@H](CC(C)C)NC(=O)[C@H](CC(C)C)N(C)C(=O)[C@H](C)N(C)C1=O [1c] | excellently exerts an inhibitory effect on differentiation of adipocytes or on fat accumulation in adipocytes |

From patent US8481484B2, “Cyclic heptapeptide and use of the same” (National University Corporation Nagoya University, priority 2007, dated 2013)
